The values that follow come from patent publication US12721835B2, “Anticoccidial composition comprising violacein, and use thereof” (CJ CHEILJEDANG CORPORATION, priority 2020, dated 2026).

In experiment [1] the test system is Eimeria tenella. The experiment is described as follows: Protozoan (sporozoite) direct killing effect. It is filed as cell-based. Particulars: tested 1 to 500 ppm, vs PBS control. The procedure:
(§1) In the present example, protozoan (sporozoite) direct killing ability evaluation was conducted against 3 representative Eimeria kinds known to be infected in most farms (E. tenella, E. acervulina, E. maxima).
(§2) A certain amount of oocysts of each coccidial protozoan was put in a tube containing glass beads and pulverized, and then to remove the crushed oocyst cell wall and other debris, internal sporocysts were purified using the percoll density gradient, and washed with PBS solution. A reagent comprising sodium taurocholic acid (Sigma aldrich, USA) and trypsin (Gibco, USA), respectively, was treated to sporocysts of Eimeria tenella, Eimeria acervulina and Eimeria maxima for excystation of the internal sporozoites, and they were incubated, and then they were washed with PBS solution once and the protozoa were obtained.
(§3) After reacting the violacein and anticoccidial agents, salinomycin, diclazuril and gallic acid (hereinafter, material) with 3 kinds of Eimeria protozoa at various concentrations of 1 to 500 ppm, respectively, only alive protozoa (sporozoites) were counted through microscopic observation. […]

The test system of experiment [2] is Eimeria maxima. Put plainly: Protozoan (sporozoite) direct killing effect. The experiment is classed as cell-based. The following applies: tested 1 to 500 ppm, vs PBS control. How it is done:
as §1, §2, §3

Experiment [3] relates to Eimeria acervulina. Put plainly: Protozoan (sporozoite) direct killing effect. The experiment is classed as cell-based. The following applies: tested 1 to 500 ppm, vs PBS control. How it is done:
as §1, §2, §3

The test system of experiment [4] is Eimeria tenella. Put plainly: In vivo anticoccidial activity upon single inoculation (broilers, formulated feed). Set-up: key to ACI: ACI out of 200 = survival% + RWG% − lesion×10 − oocyst index. The following applies: Eimeria tenella infection, feed 1 ppm. The procedure:
An in vivo anticoccidial efficacy evaluation test was performed in an animal experiment facility in Gyeongsangnam-do, South Korea. One-day-old female Ross broilers were individually weighed and randomly divided into groups to use in an experiment. Matters and conditions for experimental design were described in Table 2.
A breeding farm was managed according to the Korean poultry breeding management guidelines. Cages and the breeding farm were cleaned and disinfected before starting the test. The temperature of […] and the humidity of 40 to 50% of the breeding farm were maintained, and it was continuously monitored.
For the feed, Korea Feed Al-choi product was used, and each material (diclazuril (Yuhan Corporation YUHAN DICLA product), salinomycin (Cheil Bio Cheilsalino-60 product), violacein (CJ Cheiljedang)) was added to the feed, respectively, at a concentration described in Table 3 below to be self-mixed. Antibiotics and supplements were not used in general feed and mixed feed, and no anticoccidial agent other than each material was added. Broilers were fed ad libitum throughout the experiment period. After putting 15 1-day-age broilers in cages randomly placed for each of the control group or test group and breeding, general feed (Al-choi product) was fed for 7 days, and then the mixed feed prepared above was ingested by dividing by control group or test group. The non-infected negative control group used 1cage, and the infected negative control group and experimental group used 2cage to progress the experiment.
The feed formulation administered to the control group (negative control group or positive control group) and test group and whether coccidiosis was induced by Eimeria tenella were described in Table 3 below.
14-day-old broilers were orally inoculated with 10,000 oocysts (90% sporulated Eimeria tenella oocysts) per individual to induce coccidiosis.
The anticoccidial efficacy by test group designed in Example 1-2 above was shown as an anticoccidial index (ACI), and the anticoccidial index was calculated by Equation 2 below. The ACI score is out of 200 points, and the higher the ACI score, the more excellent the anticoccidial ability, and when it is 120 points or more to less than 140 points, it is determined that it is effective as an anticoccidial material, and when it is 140 points or more to less than 160 points, it is determined that it is excellent as an anticoccidial material, and when it is 160 points or more, it is determined that the anticoccidial effect is very excellent (Luis Miguel De Pablos et al., Anticoccidial activity of maslinic acid against infection with Eimeria tenella in chickens, Parasitol Res, 2010). Anticoccidial index (ACI)=(survival rate after challenge inoculation(%))+(daily weight gain compared to negative control group (RWG,%))−(lesion score×10)−(fecal oocyst excretion amount index) (Equation 2) • 1) Survival rate: the number of dead individuals was recorded daily, and post mortem autopsy was performed to determine a cause of mortality, and the number of individuals who died due to causes other than coccidiosis was excluded. The survival rate (%) up to the 8th day after challenge inoculation was used for anticoccidial index calculation. The measured survival rate was described in Table 4 below. • 2) Daily weight gain: body weight was measured for each cage before challenge inoculation with a protozoan into an individual and at the 7th day after challenge inoculation, and the difference was divided by the number of days to calculate the daily weight gain (ADG, g/d). ‘Daily weight gain compared to the negative control group (RWG, %)’ which was calculated by dividing the daily weight gain (ADG, average daily gain; g/d) of each experimental group by the weight gain (ADG, g/d) of the non-infected negative control group and multiplying by 100 was used for anticoccidial index calculation. […]

For experiment [5], the system named is Eimeria tenella. Put plainly: Intracellular protozoan propagation inhibition in MDBK cells (ITS-1 PCR). It is filed as cell-based. The following applies: MDBK cells, treated after invasion, 24 hours, read-out: Intracellular protozoan propagation inhibitory effect (%). The procedure: (§4) In the present example, using MDBK cell line which is a representative animal cell known to cause Eimeria infection and propagation, the inhibition ability of intracellular protozoan invasion and intracellular protozoal propagation of the violacein was investigated.
100,000 MDBK cells (purchased from ATCC) were aliquoted in a 24-well plate, and then incubated at a temperature of 37° C. for 12 hours. The protozoan of Eimeria tenella was obtained similar to the method of Example 3 above. 200,000 protozoa per one well were added to wells in which cells were aliquoted, and cultured at a temperature of 41° C. for 24 hours, and then the cells were washed using PBS solution twice to remove protozoa which were not attached to the cells. Each material (violacein and anticoccidial agents, salinomycin, diclazuril and gallic acid) was treated to the cells by concentration, and further cultured at a temperature of 41° C. for 24 hours. A negative control group is a MDBK cell infected by protozoa, and a positive control group means a group in which salinomycin and diclazuril solution was incubated with the Eimeria tenella protozoan. After removing the cells and protozoa inside the cells through pipetting, DNA was extracted from the cells, and PCR was performed using E. tenella ITS-1 (Internal transcribed spacer-1) gene-specific primers. The sequences of the used primers were described in Table 9 above.
The intracellular protozoan propagation inhibition rate (%) through treatment of the material was calculated by comparing Ct values in the material treatment groups compared to the negative control group, and the result was shown in FIG. 3 and Table 10.

Experiment [6] concerns Eimeria tenella. The experiment is described as follows: Cell invasion inhibition of protozoa in MDBK cells (ITS-1 PCR). It is filed as cell-based. Particulars: MDBK cells, 41° C. 24 hours, read-out: Cell invasion inhibitory effect of protozoa (%). The procedure:
as §4
100,000 MDBK cells (purchased from ATCC) were aliquoted in a 24-well plate, and then incubated at a temperature of 37° C. for 12 hours. The protozoan of Eimeria tenella was obtained similar to the method of Example 3 above. 200,000 protozoa per one well were added to wells in which cells were aliquoted, and each material (violacein and anticoccidial agents, salinomycin, diclazuril and gallic acid) was treated to the cells by concentration, and cultured at a temperature of 41° C. for 24 hours. A negative control group is a MDBK cell infected by protozoa of Eimeria tenella, and a positive control group means a group in which salinomycin, diclazuril or gallic acid solution was incubated with the Eimeria tenella protozoan. […] After removing the cells and protozoa inside the cells through pipetting, DNA was extracted from the cells, and PCR was performed using E. tenella ITS-1 (Internal transcribed spacer-1) gene-specific primers. The sequences of the used primers were described in Table 9 below.
Ct values before/after washing for each material were compared and corrected with the ΔCt value of the negative control group to calculate the cell invasion inhibition rate (%) of the protozoa through treatment of each material, and the result was shown in FIG. 3 and Table 10 below.

Take `N#CC(c1ccc(Cl)cc1)c1c(Cl)cc(-n2ncc(=O)[nH]c2=O)cc1Cl` (stereo not shown) [Diclazuril, diclazuril, reference compound]: the “Minimum concentration for killing 50% protozoa (sporozoites) (ppm)” value in experiment [1] was above 500 ppm; in experiment [2], above 500 ppm; in experiment [3] it was 500 ppm. Further, the “ADG(g/d) after challenge inoculation” value in experiment [4] stood at 61 g/day. In experiment [4], the Oocyst index worked out at 10. Also, the Lesion score in experiment [4] (appendix, scale 0-4, 8th day) came to 1.7. Moreover, in experiment [4] (feces day 6-8), the Oocyst excretion amount/g stood at 1.3e+08 g⁻¹. Also, the Lesion index in experiment [4] (lesion score x 10) is reported as 17. In addition, the ACI in experiment [4] (out of 200 points) is on record as 169. Also, the “Survival rate after challenge inoculation (%)” value in experiment [4] (up to 8th day) is recorded as 100%. Moreover, the “RWG(%)” value in experiment [4] (vs non-infected negative control) is recorded as 96%. The results for the inhibition at 0.5 ppm in experiment [5] (0.5 ppm) and in experiment [6] (0.5 ppm) were 45.9% and 0%, respectively. Further, the inhibition at 1 ppm stood at 52.9% in experiment [5] (1 ppm) and 6.3% in experiment [6] (1 ppm).
As to `O=C(O)c1cc(O)c(O)c(O)c1` [Gallic acid, gallic acid], the “Minimum concentration for killing 50% protozoa (sporozoites) (ppm)” value in experiment [1], in experiment [2] and in experiment [3] was above 500 ppm each time. The inhibition at 5 ppm came to 0% in experiment [5] (5 ppm) and 76% in experiment [6] (5 ppm). The inhibition at 10 ppm was 0% in experiment [5] (10 ppm) and 90.1% in experiment [6] (10 ppm).
